Experimental findings from US6951833B2, “Anti-microbial compositions” (priority 2002, dated 2005) are described below.

The structures appear in SMILES notation.

The nature of series [1]: LD50 in a mouse. To be noted: in vivo, read-out: dosage reaching the LD50 limit. The text has this: The upper limit of the amount of the composition of the present invention will depend upon how the extract is made and may be determined by the levels at which toxicity or irritation becomes an issue. Thus, for surface cleansers, very high concentrations can be employed, whereas for skin cleansers, oral care or other products used for direct contact with humans or animals, lower concentrations will be desirable to avoid irritation or toxicity issues. […] Use of the term, “safe amount” herein refers to concentrations which are sufficiently below the above-mentioned amounts to avoid toxic effects in humans or animals.

The subject of series [2] is a variety of common bacteria. Briefly: bactericidal amounts for common bacteria. The class given is cell-based. The text has this:
The composition of the present invention is preferably used in amounts that deliver at least about 2 ppm of anemonin, protoanemonin, diterpenoid alkaloids, or combinations thereof, more preferably, at least about 5 ppm of anemonin, protoanemonin, diterpenoid alkaloids, or combinations thereof, and most preferably at least about 15 ppm of anemonin, protoanemonin, diterpenoid alkaloids, or combinations thereof.

On to `O=C1C=CC2(CCC23C=CC(=O)O3)O1` (stereo not drawn) [anemonin], for which the LD50 (usually the dose expected to kill half of the subjects tested) in series [1] came to 150 mg/kg.

Take `C=C1C=CC(=O)O1` [protoanemonin]: the “amount that is generally bactericidal” value in series [2] is given as 25-200 ppm. In series [1], the LD50 worked out at 190 mg/kg.
